Test results from patent US20090197279A1, “MICROTUBULE SYNTHESIS AS A BIOMARKER” (KINEMED, INC., priority 2005, published 2009).
Entries after “also recorded” stand apart in the source; their conditions may differ.

Tests used:
[1] = system: hippocampal MT subpopulations; experiment: Tubulin abundance of MT subpopulations in hippocampus by Western blot for α-tubulin; type: in vivo, mouse; details: 0.48 nmol glutamate ICVC; 24 hours; vs mock
Method: FIG. 7 depicts the effects of ICV glutamate on the relative amounts of MT subpopulations and on total protein synthesis in murine hippocampus. (A, B) Tubulin abundances are measured by Western blot analysis for α-tubulin at 8 hour (A) and 24 hours (B). Subpopulations were total extract (total), free tubulin dimers, tau-associated MTs, tau-nonassociated (MAP2/STOP) MTs and cold stable (CS) MTs. Mock and glutamate infused ICVC mice are shown (cf. FIGS. 6A and B). […] (C) Fractional synthesis of total hippocampal proteins. Glutamate increased protein synthesis versus mock-treated animals (*p<0.01); this effect was blocked by coadministration with 0.66 pmol of Rp-cAMP (**p<0.02).
(§1) Tubulin was purified using minor modifications of protocols described previously (Fanara, P., Oback, B., Ashman, K., Podtelejnikov, A., Brandt, R. Identification of MINUS, a small polypeptide that functions as a microtubule nucleation suppressor. EMBO J. 18, 565-577 (1999); Fanara, P. et al. In vivo measurement of microtubule dynamics using stable isotope labeling with heavy water. Effect of taxanes. J. Biol. Chem. 279, 49940-49947 (2004). Briefly, cultured neurons were gently scraped off culture plates, washed in phosphate-buffered saline (PBS), and homogenized in microtubule-stabilizing buffer. For purification ex vivo, mice were anesthetized with isoflurane and euthanized by cervical dislocation. Brains were rapidly removed and washed in microtubule-stabilizing buffer (MSB); hippocampi were dissected and gently homogenized in MSB. […] The relative abundance of tubulin in each preparation (Tubulin dimers and TAU5-bound, MAP2-bound, and unbound microtubule fractions) was quantified by Western blot, and tubulin from these fractions was further purified by ion exchange and size exclusion chromatography, as previously described (Fanara, P. et al. In vivo measurement of microtubule dynamics using stable isotope labeling with heavy water. Effect of taxanes. J. Biol. Chem. 279, 49940-49947 (2004)).

[2] = system: hippocampal tubulin dimers and microtubule subsets; experiment: 2H label incorporation into hippocampal tubulin dimers and microtubule subsets during CFC (GC/MS); type: in vivo, mouse; details: conditioned mice, hippocampus
From the text: FIG. 10 depicts microtubule/tubulin exchange during hippocampus-dependent contextual memory. (A) Protocol for measurement of microtubule/tubulin exchange during contextual fear conditioning (CFC). Tubulin dimers and microtubules subsets were labeled to plateau through continuous ^2H2O labeling, starting one day before CFC training. Labeling was continued throughout CFC training (Day 2) and the contextual conditioning test until mice were euthanized (Day 3). Vehicle or nocodazole treated-mice were injected 4 hours before CFC training, consisting of three pairings of conditioned and unconditioned stimuli inside an observation chamber, as described in Example 7 below. (B) CFC experiments were conducted in groups of naïve, vehicle- (50% cyclodextrin) and nocodazole-treated (0.2 mg/kg) mice (mean±SD, n=8 per each group), respectively. […] (C-E) ^2H label incorporation into hippocampal tubulin dimers and microtubule subsets was compared at sacrifice in the indicated experimental groups. Microtubule subpopulations were fractionated as described below, and the percentage of newly synthesized tubulin was quantified by GC/MS (mean±SD, n=3). (C) and (D) In vehicle-CFC trained mice, the increased freezing response corresponded with an increase in ^2H labeling of MAP2- and CS-associated MTs, compared to naïve control animals (§p<0.01 and §§p<0.05; two-way ANOVA). […] In (C-E), bars represent % new tubulin (mean±SD, n=3).
as §1, with “(2004)). […]” for “(2004)).”

Structure (SMILES)	abundance of CS-MTs, Western blot [1]	abundance of MAP2/STOP-MTs (MAP2-associated microtubules), Western blot [1]	abundance of tau-MTs, Western blot [1]	label incorporation into tau-associated microtubules ([2]; nocodazole 0.2 mg/kg vs basal levels in naïve and conditioned animals)	2H incorporation into free tubulin dimers ([2]; nocodazole 0.2 mg/kg vs vehicle-treated controls)	label incorporation into MAP2-associated microtubules ([2]; nocodazole 0.2 mg/kg vs vehicle)	reduction of label incorporation into CS microtubules ([2]; nocodazole 0.2 mg/kg)
N[C@@H](CCC(=O)[O-])C(=O)[O-].[K+].[K+] [glutamate, potassium L-glutamate]	increased	increased	remained unchanged				
COC(=O)Nc1nc2ccc(C(=O)c3cccs3)cc2[nH]1 [nocodazole]				reduced; also recorded: significant disassembly	increase	reversed; also recorded: significant disassembly	not statistically significant
